Experimental data taken from paper PMC8070164 (Biomolecules, 2021).

Legend:
[1] = tested on: ASIC3; conditions: ref [16],[17]; cited from earlier work
Excerpt: (§1) Indeed, several neuropeptides modulate ASICs by directly binding to these ionotropic receptors. For example, dynorphin opioid neuropeptides bind to the acidic pocket of ASIC1a and shift steady-state desensitization curves to higher proton concentrations. RFamide neuropeptides bind to the central vestibule of ASIC3 [14] and delay its desensitization.

[2] = tested on: rat ASIC1a; assay: Two electrode voltage-clamp in Xenopus oocytes (ASIC1a activation); assay type: cell-based
Description: ASIC1a cRNA synthesis and preparation of oocytes was described previously. Briefly, oocytes were removed from anesthetized frogs; frogs were killed after final oocyte collection by decapitation. Animal care and surgery of frogs were conducted under protocols approved by the State Office for Nature, Environment, and Consumer Protection (LANUV) of North Rhine-Westphalia (NRW), Germany, and were performed in accordance with LANUV NRW guidelines. ASIC1a cRNA (0.016 ng) was injected into stage V or VI oocytes. Oocytes were kept in OR-2 medium (in mM, 82 NaCl, 2.5 KCl, 1 Na2HPO4, 4-(2-hydroxyethyl)-1-piperazineethanesulfonic acid (HEPES), 1.0 MgCl2, 1 CaCl2, and 0.5 mg/mL polyvinylpyrrolidone) at 19 °C. Two electrode voltage-clamp measurements were performed as described previously. Whole cell currents were recorded 24–48 h post injection at room temperature (20–25 °C) with a TurboTec 03X amplifier (npi Electronic, Tamm, Germany). Fast solution exchange was performed by a programmable pipetting robot (screening tool; npi Electronic). Data acquisition was controlled using CellWorks 5.1.1 (npi Electronic). Data were filtered at 20 Hz and acquired at 1 kHz. Holding potential was −70 mV. Standard bath solution for two electrode voltage-clamp measurements contained (in mM) 140 NaCl, 1.8 CaCl2, 1 MgCl2, and 10 HEPES.
(§2) Rat nocistatin ([…]) has been purchased from ProteoGenix (Schiltigheim, France) with a guaranteed purity of >95%. It was delivered as a lyophilized powder. For measurements with oocytes, it was dissolved in standard bath solution (pH 7.4) to obtain a concentration of 1 mM. This solution was further diluted to 0.5 mM; for one half of this solution, the pH was adjusted to pH 7.4, for the other half it was not adjusted. For measurements with CHO cells, the peptide was dissolved in bath solution to obtain a concentration of 0.25 mM; the pH was adjusted to 7.4. The solutions were freshly prepared before use.
Similar to the previous study, we expressed rat ASIC1a in Xenopus laevis oocytes and performed two electrode voltage-clamp to study activation of ASIC1a by nocistatin.
Current trace recorded from a rASIC1a-expressing oocyte stimulated repetitively with pH 6.0 for 20 s (black bars); conditioning pH 7.4 was applied for 60 s. Rat nocistatin (rNS, 0.5 mM) in pH-unadjusted (pH 5.1, red bar) und pH-adjusted (pH 7.4, green bar) conditioning solution was applied for 20 s.

[3] = tested on: rat ASIC1a; assay: Whole cell patch-clamp in transfected CHO cells (ASIC1a activation); assay type: cell-based
Description: Chinese hamster ovary (CHO) cells were maintained in Ham’s Nutrient Mixture F12 (Sigma, St. Louis, MI, USA) together with 10% fetal bovine serum (FBS; Sigma, St. Louis, MI, USA) and passaged regularly. Cells were seeded and transfected after 1 day with 1 µg rat ASIC1a cDNA in pCDNA3.1 and 1 µg GFP using X-treme GENE (Sigma, St. Louis, MI, USA). Cells were patched 48 h after transfection.
We performed whole cell patch-clamp measurements on cultured CHO cells, using patch pipettes of 4–6 MΩ resistance filled with (in mM) 10 NaCl, 121 KCl, 2 MgCl2, 5 EGTA, 10 HEPES, pH 7.25. The bath solution contained (in mM) 128 NaCl, 5.4 KCl, 1 MgCl2, 2 CaCl2, 10 HEPES, pH 7.4 with NaOH. Osmolarity was adjusted with glucose to 280 mOsmol/L for the pipette solution and to 290 mOsmol/L for the extracellular solution. Data were acquired using an Axon Digidata 1440A and an Axon Axopatch 200B and recorded and analyzed using the pClamp Software (Axon Instruments, Molecular Devices, Sunnyvale, San Jose, CA, USA).
as §2
(A) current trace of a CHO cell transfected with rASIC1a cDNA stimulated with pH 6.0 (black bar) or with rNS (0.25 mM, pH 7.4, green bar) for 10 s. Conditioning pH 7.4. This trace is representative for 6 similar measurements. (B) as in A, ASIC1a-expressing CHO cell was stimulated repetitively with pH 6.0 for 10 s (black bars). rNS (0.25 mM, pH 7.4, green bar) was applied for 10 s prior to pH 6.0 stimulation. This trace is representative for 3 similar measurements.

[4] = pH of bath solution after dissolving nocistatin; assay type: physicochemical; conditions: standard bath solution, 10 mM HEPES, initial pH 7.4, standard pH meter
Description: as §2
We dissolved nocistatin in bath solution containing 10 mM HEPES with a pH of 7.4 (see Methods); this is the same buffer at the same concentration that was previously used in the study reporting activation of ASICs by nocistatin [18]. Nocistatin dissolved readily, but, as expected for a highly acidic peptide with a pI of 3.7, the pH of the solution dropped to pH values between 6.7 and 4.15 when we dissolved nocistatin to obtain a final concentration between 0.25 and 1 mM (Table 1). We titrated nocistatin-containing solutions using NaOH until we reached again neutral pH of 7.4. For comparison, we also tested a solution containing 0.5 mM nocistatin without adjustment of the pH value.

[5] = tested on: ASIC1a; conditions: ref [18], cited from earlier work
Excerpt: as §1, with “desensitization. […] Strikingly, it was reported that the apparent nocistatin affi ...” for “desensitization.”

[6] = tested on: ASIC1b; conditions: cited from earlier work
Description: as §1, with “desensitization. […] But ASIC2a has a low proton sensitivity with an EC50 of ~4.0 [21, 22]. Because 1 mM noci ...” for “desensitization.”

[7] = tested on: ASIC2a; conditions: ref [18], cited from earlier work
Description: as §1, with “desensitization. […] But ASIC2a has a low proton sensitivity with an EC50 of ~4.0 [21, 22]. Because 1 mM noci ...” for “desensitization.”

[8] = tested on: ASIC3; conditions: cited from earlier work
Description: as §1, with “desensitization. […] But ASIC2a has a low proton sensitivity with an EC50 of ~4.0 [21, 22]. Because 1 mM noci ...” for “desensitization.”

[9] = tested on: FMRFamide-activated Na^+ channel (FaNaC); conditions: cited from earlier work
Description: For example, some DEG/ENaCs from invertebrates are directly gated by neuropeptides. The FMRFamide-activated Na^+ channel (FaNaC) from the snail Helix is activated by the neuropeptide FMRFamide with an EC50 of ~2 μM [9], Hydra Na^+ channels (HyNaCs) are activated by Hydra-RFamides with an EC50 of 0.05–10 μM [10], and the myoinhibitory peptide-gated ion channel (MGIC) from the annelid Platynereis is activated by myoinhibitory peptides with an EC50 of 1–5 μM [11]. Therefore, neuropeptides are attractive candidates also for ASIC agonists. Of note, these peptide-gated ion channels desensitize ...

[10] = 1 mM nocistatin vs pH 5.5, ref [18]

For endomorphin-2, the “effect on ASIC3 desensitization” value [1] is given as “slow desensitization of ASIC3”.
For “MPRVRSVVQARDAEPEADAEPVADEADEVEQKQLQ [nocistatin, endogenous neuropeptide with 35 amino acids; rat nocistatin purchased from ProteoGenix, purity >95%]”, the “ASIC1a current on pH 6.0 application immediately after nocistatin at pH 5.1 (desensitization)” value ([2]; 0.5 mM nocistatin pH 5.1, then pH 6.0, holding potential −70 mV, representative for 5 measurements) was “did not elicit currents, indicating that ASIC1a was completely desensitized”, the “ASIC current on pH 6.0 application immediately after nocistatin at pH 7.4 (desensitization)” value ([2]; 0.5 mM nocistatin pH 7.4, then pH 6.0, holding potential −70 mV, representative for 5 measurements) was “elicited ASIC currents with a full amplitude” and the “ASIC1a current elicited by nocistatin, pH not adjusted” value ([2]; 0.5 mM, pH 5.1, 20 s, conditioning pH 7.4, holding potential −70 mV, representative for 5 measurements) was “elicited ASIC1a currents with an amplitude and kinetics similar to the currents elicited by pH 6.0”. For the same substance, the “ASIC1a current elicited by nocistatin, pH adjusted” value ([2]; 0.5 mM, pH adjusted to 7.4, 20 s, holding potential −70 mV, representative for 5 measurements) was “elicited no ASIC1a currents”, the “direct activation of ASIC1a (summary)” value ([2]; up to 500 μM nocistatin, Xenopus oocytes) was “did not directly activate ASIC1a” and the “ASIC1a current on pH 6.0 application following nocistatin” value ([3]; 0.25 mM nocistatin pH 7.4 for 10 s, then pH 6.0 for 10 s, representative for 3 measurements) was “induced canonical ASIC1a currents”. For the same substance, the “current elicited by nocistatin at neutral pH” value ([3]; 0.25 mM, pH 7.4, 10 s, conditioning pH 7.4, representative for 6 measurements) was “elicited no current”, the “direct activation of ASIC1a (summary)” value ([3]; CHO cells, text says up to 500 μM nocistatin) was “did not directly activate ASIC1a” and the “measured pH value after dissolving nocistatin” value (from here on “measured pH value”) ([4]; 0.25 mM nocistatin) was 6.7. The “measured pH value” value ([4]; 0.5 mM nocistatin) was 5.1, the “measured pH value” value ([4]; 1.0 mM nocistatin) was 4.15 and the direct agonism ([5]; ASIC1a) was “direct agonist”. For the same substance, the “desensitization kinetics of nocistatin-induced currents” value ([5]; compared with proton-induced currents) was “virtually identical to the kinetics of proton-induced currents”, the EC50 ([5]; read-out: EC50 (affinity of nocistatin for ASIC1a)) was about 250 µM and the “current amplitude, 1 mM nocistatin compared with pH 5.5” value [6, 10] was “similar”. The “activation by 1 mM nocistatin” value ([6]; 1 mM, ref [18]) was “activated”, the direct agonism ([6]; ref [18]) was “direct agonist” and the “current amplitude, 1 mM nocistatin compared with acidification from 7.4 to 5.5” value ([7]; 1 mM nocistatin vs acidification from 7.4 to 5.5, ASIC2a) was “eight times larger current amplitudes”. The “activation by 1 mM nocistatin” value ([7]; 1 mM, ASIC2a) was “activated”, the direct agonism ([7]; ASIC2) was “direct agonist” and the “current amplitude, 1 mM nocistatin compared with pH 5.5” value [8, 10] was “similar”. For the same substance, the “activation by 1 mM nocistatin” value ([8]; 1 mM, ref [18]) was “activated” and the direct agonism ([8]; ref [18]) was “direct agonist”.
For FMRFamide, the desensitization time constant ([9]; desensitize only partially and slowly, ref [9],[10],[11]) is given as over 10 s and the EC50 ([9]; ref [9]) is given as about 2 µM.
For endomorphin-1, the “effect on ASIC3 desensitization” value [1] is given as “slow desensitization of ASIC3”.
